Results as given in patent US20040019091A1, “Triazole derivatives and pharmaceutical compositions comprising them” (priority 2000, published 2004).

Tests used:
[1] = target: T1, 3T3 cells expressing the human CCK1 receptor (Homo sapiens, UniProt P32238); test: mobilization of intracellular calcium ([Ca++]i), Fura-2; type: cell-based; conditions: read-out: EC50 [Ca++]i release
T1 construct: expressed in transfected cells; host or cells: 3T3 cells
T1 sequence (P32238 1-428): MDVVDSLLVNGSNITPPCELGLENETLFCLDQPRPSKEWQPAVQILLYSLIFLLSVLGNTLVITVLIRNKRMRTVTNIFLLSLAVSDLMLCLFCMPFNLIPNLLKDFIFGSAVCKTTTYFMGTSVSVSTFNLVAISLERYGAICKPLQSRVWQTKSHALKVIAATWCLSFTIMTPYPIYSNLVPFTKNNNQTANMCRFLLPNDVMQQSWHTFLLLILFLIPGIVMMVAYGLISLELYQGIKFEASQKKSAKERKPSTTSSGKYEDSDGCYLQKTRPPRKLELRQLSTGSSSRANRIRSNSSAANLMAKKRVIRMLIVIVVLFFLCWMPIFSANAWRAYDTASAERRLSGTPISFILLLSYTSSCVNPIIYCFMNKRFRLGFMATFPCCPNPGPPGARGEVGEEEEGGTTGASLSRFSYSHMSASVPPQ
Experimental: their CCK1 receptor agonist property, by way of their capacity to induce mobilization of intracellular calcium in vitro in 3T3 cells expressing the human CCK1 receptor;
(§1) The compounds of formula (I) underwent studies of in vitro binding to CCK1 and CCK2 receptors, using the method described in Europ. J. Pharmacol., 1993, 232, 13-19. […] The agonist activity of the compounds towards CCK1 receptors was evaluated in vitro in 3T3 cells expressing the human CCK1 receptor, by measuring the mobilization of the intracellular calcium ([Ca^++]i), according to a technique derived from that of Lignon M F et al., Eur. J. Pharmacol., 1993, 245, 241-245. The calcium concentration [Ca^++]i is evaluated with Fura-2 by the double excitation wavelength method. The ratio of the fluorescence emitted at two wavelengths gives the concentration of [Ca^++]i, after calibration (Grynkiewiez G. et al., J. Biol. Chem., 1985, 260, 3440-3450).

human CCK2 receptor = target: T2, human CCK2 receptor (Homo sapiens, UniProt P32239); test: in vitro binding to CCK2 receptor; conditions: read-out: IC50 (affinity, human CCK2 receptor)
T2 sequence (P32239 1-447): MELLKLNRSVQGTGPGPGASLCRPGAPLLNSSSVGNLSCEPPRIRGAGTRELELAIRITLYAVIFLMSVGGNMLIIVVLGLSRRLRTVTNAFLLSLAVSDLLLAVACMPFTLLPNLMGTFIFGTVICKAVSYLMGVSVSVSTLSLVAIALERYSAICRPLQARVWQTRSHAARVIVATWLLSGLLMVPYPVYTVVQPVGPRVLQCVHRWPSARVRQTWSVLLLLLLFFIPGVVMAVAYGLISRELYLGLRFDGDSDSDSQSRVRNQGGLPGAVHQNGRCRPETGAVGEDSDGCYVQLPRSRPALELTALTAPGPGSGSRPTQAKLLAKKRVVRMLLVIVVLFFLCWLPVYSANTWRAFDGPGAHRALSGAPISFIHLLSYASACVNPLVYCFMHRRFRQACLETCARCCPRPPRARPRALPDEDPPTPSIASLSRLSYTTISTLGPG
Experimental: their selectivity for the CCK2 receptor;
as §1

human CCK1 receptor = target: T3, human CCK1 receptor (Homo sapiens, UniProt P32238); test: in vitro binding to CCK1 receptor ([125I]-CCK displacement)
T3 construct: expressed in transfected cells; host or cells: 3T3 cells
T3 sequence (P32238 1-428): T1 sequence (P32238 1-428)
Experimental: their potentiality for displacing [^125I]-CCK from its binding sites present in rat pancreatic membranes (CCK1 receptor) or 3T3 cells expressing recombinant human CCK1 receptor;
as §1

gastric emptying = gastric emptying of a charcoal meal in the mouse, oral route; type: in vivo, Female Swiss albino CD1 mice; conditions: p.o., 60 minutes before charcoal meal, read-out: ED50 inhibition of gastric emptying
Experimental: their agonist effect by the oral route on gastric drainage in the mouse.
An in vivo study of the agonist effect of the compounds on gastric emptying was carried out as follows. Female Swiss albino CD1 mice (20-25 g) are placed on a solid fast for 18 hours. On the day of the experiment, the products are administered orally 60 minutes before the administration of a charcoal meal (0.3 ml per mouse of a suspension in water of 10% charcoal powder, 5% gum arabic and 1% carboxymethylcellulose). The mice are sacrificed 5 minutes later by cervical dislocation, and the gastric emptying is defined as the presence of charcoal in the intestine beyond the pyloric sphincter (Europ. J. Pharmacol., 1993, 232, 13-19).

Q: With `CCNCC.COc1cc(-c2nc(NC(=O)c3cc4c(C)c(C)c(OC)cc4n3CCC(=O)O)nn2CCC2CCCCC2)c(OC)cc1C` as the compound, how does the melting point read?
A: The melting point was 143 °C (dec.).

Q: With `COc1cc(-c2nc(NC(=O)c3cc4c(C)c(C)c(OC)cc4n3CCC(=O)[O-])nn2CCC2CCCCC2)c(OC)cc1C.[K+]` [Example 1, 3-[2-[[[1-(2-cyclohexylethyl)-5-(2,5-dimethoxy-4-methylphenyl)-1H-1,2,4-triazol-3-yl]amino]carbonyl]-6-methoxy-4,5-dimethyl-1H-indol-1-yl]propionic acid, Potassium Salt] as the compound, how does the EC50 [1] read?
A: The EC50 was roughly 1 nM.

Q: And the IC50 (human CCK2 receptor)?
A: The IC50 was 234 nM.

Q: What about the IC50 (human CCK1 receptor; human CCK1 receptor, read-out: IC50 (affinity, human CCK1 receptor)) of the same compound?
A: The IC50 was 0.4 nM.

Q: And the “selectivity (affinity CCK1 receptor versus affinity of CCK2 receptor)” value (human CCK1 receptor; human CCK1 versus human CCK2)?
A: The value was greater than 500 fold.

Q: For `COc1cc(-c2nc(NC(=O)c3cc4c(C)c(C)c(OC)cc4n3CCC(=O)O)nn2CCC2CCCCC2)c(OC)cc1C.NCCO` [Example 3, 3-[2-[[[1-(2-cyclohexylethyl)-5-(2,5-dimethoxy-4-methylphenyl)-1H-1,2,4-triazol-3-yl]amino]carbonyl]-6-methoxy-4,5-dimethyl-1H-indol-1-yl]propionic acid ethanolamine salt], which ED50 (gastric emptying) is on record?
A: The ED50 was 0.027 mg/kg.
